Key:
Assay in all cases: relative viability (nuclei count vs DMSO), 5 days (fraction); higher = more cells survive
[1] = compound: C1=CC2=C(C=C(C(=C2N=C1)O)N=NC3=CC4=C(C=C3)C=C(C=C4)S(=O)(=O)O)S(=O)(=O)O + COc1cccc2cc(-c3nc([C@H]4CC[C@H](C(=O)O)CC4)n4ncnc(N)c34)[nH]c12 [OSI-027] (partner 0.5 µM)
How it was run: (§1)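 For relative viability, nuclei counts in treated wells were divided by those in vehicle wells. Lung cancer cell lines had been pin-tool dosed in 1536-well plates the day after seeding and cultured for 5 days, then fixed and stained in one step (final 0.05% Triton X-100, 1% formaldehyde, 1 ug/ml Hoechst) and imaged at 4×. Doses were one drug alone or a fixed anchor-drug dose plus five library-drug doses (not always all listed) in √10 steps, and values are duplicate-plate medians.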

[2] = compound: C1=CC2=C(C=C(C(=C2N=C1)O)N=NC3=CC4=C(C=C3)C=C(C=C4)S(=O)(=O)O)S(=O)(=O)O + C[C@@H](Oc1cc(-c2cnn(C3CCNCC3)c2)cnc1N)c1c(Cl)ccc(F)c1Cl [Crizotinib] (partner 1 µM)
How it was run: as §1

[3] = compound: C1=CC2=C(C=C(C(=C2N=C1)O)N=NC3=CC4=C(C=C3)C=C(C=C4)S(=O)(=O)O)S(=O)(=O)O + Nc1ncn([C@H]2C[C@H](O)[C@@H](CO)O2)c(=O)n1 [Decitabine] (partner 2 µM)
How it was run: as §1

AT-7519 + OSI-027 = compound: O=C(NC1CCNCC1)c1n[nH]cc1NC(=O)c1c(Cl)cccc1Cl [AT-7519] + COc1cccc2cc(-c3nc([C@H]4CC[C@H](C(=O)O)CC4)n4ncnc(N)c34)[nH]c12 [OSI-027] (partner 0.5 µM)
How it was run: as §1

Cell Line	relative viability ([1]; first compound 0.08 µM)	relative viability ([1]; first compound 0.253 µM)	relative viability ([1]; first compound 0.8 µM)	relative viability ([1]; first compound 2.53 µM)	relative viability ([1]; first compound 8 µM)	relative viability ([2]; first compound 0.08 µM)	relative viability ([2]; first compound 0.253 µM)	relative viability ([2]; first compound 0.8 µM)	relative viability ([2]; first compound 2.53 µM)	relative viability ([2]; first compound 8 µM)	relative viability ([3]; first compound 0.08 µM)	relative viability ([3]; first compound 0.253 µM)	relative viability ([3]; first compound 0.8 µM)	relative viability ([3]; first compound 2.53 µM)	relative viability ([3]; first compound 8 µM)	relative viability (AT-7519 + OSI-027; first compound 0.01 µM)	relative viability (AT-7519 + OSI-027; first compound 0.03162 µM)	relative viability (AT-7519 + OSI-027; first compound 0.3162 µM)	relative viability (AT-7519 + OSI-027; first compound 1 µM)
HOP-62	0.843	0.817	0.67	0.807	0.836	1.14	0.725	0.701	1.09	1.02	0.186	0.206	0.24	0.254	0.228	0.857	0.675	0.846	0.809
HARA	0.633	0.524	0.513	0.522	0.48	1.1	1.01	1.03	1.02	1.04	0.69	0.584	0.52	0.519	0.563	0.425	0.36	0.523	0.423
NCI-H838	0.373	0.464	0.354	0.409	0.392	0.992	0.734	0.848	0.943	0.811	0.469	0.441	0.434	0.514	0.44	0.345	0.39	0.276	0.127
NCI-H1755	0.705	0.74	0.786	0.689	0.703	0.977	0.819	0.858	0.938	0.849	0.771	0.679	0.714	0.737	0.698	0.66	0.655	0.705	0.699
HCC-78	0.436	0.368	0.417	0.346	0.348	0.388	0.336	0.328	0.337	0.203	0.796	0.671	0.756	0.708	0.589	0.386	0.395	0.349	0.341
IA-LM	–	–	–	–	–	1.16	0.602	0.822	0.757	0.9	–	–	–	–	–	–	–	–	–
NCI-H322M	0.651	0.501	0.513	0.586	0.509	1.12	0.892	0.904	1.07	1.02	0.764	0.715	0.708	0.723	0.768	0.539	0.521	0.422	0.428
NCI-H3122	1.09	0.919	0.899	0.856	0.922	0.285	0.29	0.275	0.271	0.274	0.415	0.471	0.472	0.448	0.439	1.09	0.871	0.357	0.152

From the supplement of paper PMC10307832
